Measurements taken from patent EP1175467B1, “STABILIZED ADHESIVE COMPOSITIONS CONTAINING HIGHLY SOLUBLE, RED-SHIFTED, PHOTOSTABLE BENZOTRIAZOLE UV ABSORBERS AND LAMINATED ARTICLES DERIVED THEREFROM” (Ciba Specialty Chemicals Holding Inc., priority 1999, dated 2000).

Assay: Benzotriazole solubility in adhesive GELVA 263 (observed crystallization after solvent evaporation)
Conditions: in GELVA 263 polyacrylate adhesive; approximate maximum concentration, weight of total benzotriazole added to GELVA 263 as is
Experimental: To measure this solubility a number of structurally different benzotriazoles are added to a typical adhesive GELVA® 263 (Solutia) which is a 44.5% solution of a polyacrylate in a mixture of ethyl acetate and hexane. The polyacrylate is a copolymer of methyl methacrylate, 2-ethylhexyl methacrylate and glycidyl methacrylate.
The test benzotriazole is dissolved in 5 mL of ethyl acetate, toluene or a mixture of ethyl acetate and toluene. To the solution is added 5 g of GELVA® 263 and 2-3 mL of the resulting solution is placed into individual watch glasses. Solubility is then evaluated based upon observed crystallization once the solvent has evaporated. Observations start after several hours and then continue over a period of several weeks.
Solubilities are reported in weight of total benzotriazole added to GELVA® 263 as is.
Following the procedure of Example 3, the solubility in GELVA® 263 (Solutia) of various mixtures of benzotriazoles is determined. […]
The test compound is dissolved in 5 mL of ethyl acetate, toluene or a mixture of ethyl acetate and toluene. […] Solubility is then evaluated based upon observed crystallization once the solvent has evaporated. […]

| SMILES | Solubility without Crystallization (%) |
| --- | --- |
| COC(=O)CCc1cc(-n2nc3ccc(S(=O)(=O)c4ccccc4)cc3n2)c(O)c(C(C)(C)C)c1 [K, methyl 3-(5-phenylsulfonyl-2H-benzotriazol-2-yl)-5-tert-butyl-4-hydroxyhydrocinnamate] | 11.3 |
| COC(=O)C[S+]([O-])c1ccc2nn(-c3cc(C(C)(C)C)cc(C(C)(C)C)c3O)nc2c1 (centres unmarked) [J, 5-methoxycarbonylmethylsulfinyl-2-(2-hydroxy-3,5-di-tert-butylphenyl)-2H-benzotriazole] | 8.0 |
